Test results: PubChem BioAssay AID1259407 (Chemical Carcinogenesis Research Information System (CCRIS), 2018)
The source made the active and inactive calls. How the calls were made is not given here.

Test system: CCRIS mutagenicity, Ames/micronucleus/aberration tests
Experiment: CCRIS mutagenicity studies
[1] = Test System: AMES SALMONELLA TYPHIMURIUM, Strain/Indicator: TA97, Metabolic Activation: NONE, Method: PREINCUBATION
[2] = Test System: AMES SALMONELLA TYPHIMURIUM, Strain/Indicator: TA98, Metabolic Activation: NONE, Method: PREINCUBATION
[3] = Test System: AMES SALMONELLA TYPHIMURIUM, Strain/Indicator: TA100, Metabolic Activation: NONE, Method: PREINCUBATION
[4] = Test System: AMES SALMONELLA TYPHIMURIUM, Strain/Indicator: TA1535, Metabolic Activation: NONE, Method: PREINCUBATION
[5] = Test System: AMES SALMONELLA TYPHIMURIUM, Strain/Indicator: TA1537, Metabolic Activation: NONE, Method: PREINCUBATION

For COc1ccc(C=O)cc1, which mutagenic call [1] is on record?
Its mutagenic call is “inactive; negative”.

What about the mutagenic call (Test System: AMES SALMONELLA TYPHIMURIUM, Strain/Indicator: TA97, Metabolic Activation: RAT, LIVER, S-9, AROCLOR 1254, Method: PREINCUBATION) of the same compound?
The mutagenic call was “inactive; negative”.

And the mutagenic call [2]?
Its mutagenic call is “inactive; negative”.

What about the mutagenic call (Test System: AMES SALMONELLA TYPHIMURIUM, Strain/Indicator: TA98, Metabolic Activation: RAT LIVER S-9, PHENOBARBITAL AND BETA-NAPHTHOFLAVONE, Method: PREINCUBATION) of the same compound?
The mutagenic call was “inactive; negative”.

And the mutagenic call [3]?
Its mutagenic call is “inactive; negative”.

What about the mutagenic call (Test System: AMES SALMONELLA TYPHIMURIUM, Strain/Indicator: TA100, Metabolic Activation: RAT LIVER S-9, PHENOBARBITAL AND BETA-NAPHTHOFLAVONE, Method: PREINCUBATION) of the same compound?
Its mutagenic call is “inactive; negative”.

And the mutagenic call (Test System: AMES SALMONELLA TYPHIMURIUM, Strain/Indicator: TA102, Metabolic Activation: NONE, Method: PREINCUBATION)?
Its mutagenic call is “inactive; negative”.

What about the mutagenic call (Test System: AMES SALMONELLA TYPHIMURIUM, Strain/Indicator: TA102, Metabolic Activation: RAT, LIVER, S-9, AROCLOR 1254, Method: PREINCUBATION) of the same compound?
The mutagenic call was “inactive; negative”.

And the mutagenic call [4]?
The mutagenic call was “inactive; negative”.

And the mutagenic call (Test System: AMES SALMONELLA TYPHIMURIUM, Strain/Indicator: TA1535, Metabolic Activation: RAT LIVER S-9, PHENOBARBITAL AND BETA-NAPHTHOFLAVONE, Method: PREINCUBATION)?
Its mutagenic call is “inactive; negative”.

And the mutagenic call [5]?
Its mutagenic call is “inactive; negative”.

What about the mutagenic call (Test System: AMES SALMONELLA TYPHIMURIUM, Strain/Indicator: TA1537, Metabolic Activation: RAT LIVER S-9, PHENOBARBITAL AND BETA-NAPHTHOFLAVONE, Method: PREINCUBATION) of the same compound?
The mutagenic call was “inactive; negative”.

And the mutagenic call (Test System: AMES SALMONELLA TYPHIMURIUM, Strain/Indicator: TA1538, Metabolic Activation: NONE, Method: PREINCUBATION)?
Its mutagenic call is “inactive; negative”.

What about the mutagenic call (Test System: AMES SALMONELLA TYPHIMURIUM, Strain/Indicator: TA1538, Metabolic Activation: RAT LIVER S-9, PHENOBARBITAL AND BETA-NAPHTHOFLAVONE, Method: PREINCUBATION) of the same compound?
The mutagenic call was “inactive; negative”.

And the mutagenic call (Test System: E. COLI, Strain/Indicator: WP2UVRA, Metabolic Activation: NONE, Method: PREINCUBATION)?
The mutagenic call was “inactive; negative”.

And the mutagenic call (Test System: E. COLI, Strain/Indicator: WP2UVRA, Metabolic Activation: RAT LIVER S-9, PHENOBARBITAL AND BETA-NAPHTHOFLAVONE, Method: PREINCUBATION)?
The mutagenic call was “inactive; negative”.

And the mutagenic call (Test System: MOUSE LYMPHOMA, Strain/Indicator: L5178Y (TK+/TK-), Metabolic Activation: NONE, Method: SUSPENSION/PLATE)?
Its mutagenic call is “active; positive”.

What about the mutagenic call (Test System: MOUSE LYMPHOMA, Strain/Indicator: L5178Y (TK+/TK-), Metabolic Activation: RAT, LIVER, S-9, AROCLOR 1254, Method: SUSPENSION/PLATE) of the same compound?
Its mutagenic call is “active; positive. reevaluation of results: positive”.

What about the mutagenic call (Test System: Mouse lymphoma, Strain/Indicator: L5178Y (tk+/tk-), Metabolic Activation: None, Method: Suspension/plate) of the same compound?
The mutagenic call was “inactive; negative”.

Which mutagenic call (Test System: AMES SALMONELLA TYPHIMURIUM, Strain/Indicator: TA98, Metabolic Activation: S-9, Method: STANDARD PLATE) does the source give for COc1nsc2cc(N)ccc12 here?
Its mutagenic call is “active; positive”.

How did the mutagenic call (Test System: AMES SALMONELLA TYPHIMURIUM, Strain/Indicator: TA97, Metabolic Activation: HAMSTER, LIVER, S-9, AROCLOR 1254 (10 OR 30%), Method: PREINCUBATION) turn out when CCC(C(N)=O)(C(N)=O)c1ccccc1 was run?
Its mutagenic call is “inactive; negative”.

What about the mutagenic call [1] of the same compound?
The mutagenic call was “inactive; negative”.

And the mutagenic call (Test System: AMES SALMONELLA TYPHIMURIUM, Strain/Indicator: TA97, Metabolic Activation: RAT, LIVER, S-9, AROCLOR 1254 (10 OR 30%), Method: PREINCUBATION)?
Its mutagenic call is “inactive; negative”.

What about the mutagenic call (Test System: AMES SALMONELLA TYPHIMURIUM, Strain/Indicator: TA98, Metabolic Activation: HAMSTER, LIVER, S-9, AROCLOR 1254 (10 OR 30%), Method: PREINCUBATION) of the same compound?
Its mutagenic call is “inactive; negative”.

And the mutagenic call [2]?
Its mutagenic call is “inactive; negative”.

And the mutagenic call (Test System: AMES SALMONELLA TYPHIMURIUM, Strain/Indicator: TA98, Metabolic Activation: RAT, LIVER, S-9, AROCLOR 1254 (10 OR 30%), Method: PREINCUBATION)?
The mutagenic call was “inactive; negative”.

What about the mutagenic call (Test System: AMES SALMONELLA TYPHIMURIUM, Strain/Indicator: TA100, Metabolic Activation: HAMSTER, LIVER, S-9, AROCLOR 1254 (10 OR 30%), Method: PREINCUBATION) of the same compound?
The mutagenic call was “inactive; negative”.

What about the mutagenic call [3] of the same compound?
The mutagenic call was “inactive; negative”.

And the mutagenic call (Test System: AMES SALMONELLA TYPHIMURIUM, Strain/Indicator: TA100, Metabolic Activation: RAT, LIVER, S-9, AROCLOR 1254 (10 OR 30%), Method: PREINCUBATION)?
The mutagenic call was “inactive; negative”.

And the mutagenic call (Test System: AMES SALMONELLA TYPHIMURIUM, Strain/Indicator: TA1535, Metabolic Activation: HAMSTER, LIVER, S-9, AROCLOR 1254 (10 OR 30%), Method: PREINCUBATION)?
Its mutagenic call is “inactive; negative”.

And the mutagenic call [4]?
The mutagenic call was “inactive; negative”.

What about the mutagenic call (Test System: AMES SALMONELLA TYPHIMURIUM, Strain/Indicator: TA1535, Metabolic Activation: RAT, LIVER, S-9, AROCLOR 1254 (10 OR 30%), Method: PREINCUBATION) of the same compound?
Its mutagenic call is “inactive; negative”.

Which results are given for O=C1OC(=O)c2c(Br)c(Br)c(Br)c(Br)c21?
mutagenic call (Test System: AMES SALMONELLA TYPHIMURIUM, Strain/Indicator: TA98, Metabolic Activation: HAMSTER, LIVER, S-9, AROCLOR 1254 (10%), Method: PREINCUBATION): inactive; negative; mutagenic call [2]: inactive; negative; mutagenic call (Test System: AMES SALMONELLA TYPHIMURIUM, Strain/Indicator: TA98, Metabolic Activation: RAT, LIVER, S-9, AROCLOR 1254 (10%), Method: PREINCUBATION): inactive; negative; mutagenic call (Test System: AMES SALMONELLA TYPHIMURIUM, Strain/Indicator: TA100, Metabolic Activation: HAMSTER, LIVER, S-9, AROCLOR 1254 (10%), Method: PREINCUBATION): inactive; negative; mutagenic call [3]: inactive; negative; mutagenic call (Test System: AMES SALMONELLA TYPHIMURIUM, Strain/Indicator: TA100, Metabolic Activation: RAT, LIVER, S-9, AROCLOR 1254 (10%), Method: PREINCUBATION): inactive; negative; mutagenic call (Test System: AMES SALMONELLA TYPHIMURIUM, Strain/Indicator: TA1535, Metabolic Activation: HAMSTER, LIVER, S-9, AROCLOR 1254 (10%), Method: PREINCUBATION): inactive; negative; mutagenic call [4]: inactive; negative; mutagenic call (Test System: AMES SALMONELLA TYPHIMURIUM, Strain/Indicator: TA1535, Metabolic Activation: RAT, LIVER, S-9, AROCLOR 1254 (10%), Method: PREINCUBATION): inactive; negative; mutagenic call (Test System: AMES SALMONELLA TYPHIMURIUM, Strain/Indicator: TA1537, Metabolic Activation: HAMSTER, LIVER, S-9, AROCLOR 1254 (10%), Method: PREINCUBATION): inactive; negative; mutagenic call [5]: inactive; negative; mutagenic call (Test System: AMES SALMONELLA TYPHIMURIUM, Strain/Indicator: TA1537, Metabolic Activation: RAT, LIVER, S-9, AROCLOR 1254 (10%), Method: PREINCUBATION): inactive; negative

With Fc1cnc2c(ccc3ncc(F)cc32)c1 as the compound, how does the mutagenic call (Test System: AMES SALMONELLA TYPHIMURIUM, Strain/Indicator: TA100, Metabolic Activation: RAT, LIVER, S-9, PHENOBARBITAL AND 5,6-BENZOFLAVONE, Method: PREINCUBATION) read?
The mutagenic call was “inactive; negative”.
